Assay results reported in ChEMBL document CHEMBL5055668 (J Med Chem, 2021).
Active and inactive are the calls of the source. No cut-off for these calls is given here.

Experiments:
[1] = tested on: Mus musculus; experiment: Toxicity in C57BL/6 mouse allografted with mouse MC38 cells assessed as spleen damage at 5 to 20 mg/kg, po administered every day for 2 weeks by histopathological analysis; assay type: organism-based, MC-38; details: in vivo, 336 h, dose 5-20 mg/kg
[2] = tested on: MC-38; experiment: Antitumor activity against mouse MC38 cells allografted in C57BL6 mouse assessed as reduction in AKT phosphorylation in tumor tissue at 5 to 10 mg/kg, po administered daily for 2 weeks by Western blot analysis; assay type: functional, organism-based; details: dose 5-10 mg/kg
[3] = tested on: HCT-116; experiment: Antiproliferative activity against human HCT-116 cells assessed as reduction in cell viability at 10 to 100 nM incubated for 24 hrs by CCK-8 assay; assay type: functional, cell-based; details: dose 10-100 nM
[4] = tested on: MC-38; experiment: Antitumor activity against mouse MC38 cells allografted in po dosed C57BL6 mouse assessed as inhibition of tumor growth administered daily for 2 weeks by caliper method; assay type: functional, organism-based; details: dose 5-20 mg/kg
[5] = tested on: BMDM; experiment: Induction of conversion of M2-macrophages to the M1 phenotype in CM of MC38 cells treated C57BL/6 mouse BMDM cells assessed as down regulation of Arg1 mRNA expression at 30 to 100 nM preincubated with culture medium of MC38 cells for 24 hrs followed by compound addition and measured after 24 hrs by qPCR analysis; assay type: functional, cell-based; details: dose 30-100 nM
[6] = tested on: MC-38; experiment: Antitumor activity against mouse MC38 cells allografted in C57BL6 mouse assessed as decrease in chil3 mRNA expression at 10 to 20 mg/kg, po administered daily for 2 weeks by qPCR analysis; assay type: functional, organism-based; details: dose 10-20 mg/kg
[7] = tested on: HCT-116; experiment: Antitumor activity against human HCT-116 cells xenografted in nude BALB/c mouse assessed as tumor growth inhibition at 5 to 20 mg/kg, po administered daily for 2 weeks; assay type: functional, organism-based; details: dose 5-20 mg/kg
[8] = tested on: MC-38; experiment: Antiproliferative activity against mouse MC38 cells cultured with culture medium of M2-macrophages assessed as reduction in cell viability at 10 to 100 nM incubated for 24 hrs by CCK-8 assay; assay type: functional, cell-based; details: dose 10-100 nM
[9] = target: T1, Macrophage colony-stimulating factor 1 receptor (Mus musculus) (UniProt P09581); experiment: Inhibition of CSF-1R signaling pathway in C57BL/6 mouse BMDM cells assessed as reduction in M-CSF induced CSF-1R phosphorylation preincubated for 12 hrs followed by M-CSF stimulation for 30 mins by Western blot analysis; assay type: cell-based; details: dose 100.0 nM
T1 sequence (whole entry): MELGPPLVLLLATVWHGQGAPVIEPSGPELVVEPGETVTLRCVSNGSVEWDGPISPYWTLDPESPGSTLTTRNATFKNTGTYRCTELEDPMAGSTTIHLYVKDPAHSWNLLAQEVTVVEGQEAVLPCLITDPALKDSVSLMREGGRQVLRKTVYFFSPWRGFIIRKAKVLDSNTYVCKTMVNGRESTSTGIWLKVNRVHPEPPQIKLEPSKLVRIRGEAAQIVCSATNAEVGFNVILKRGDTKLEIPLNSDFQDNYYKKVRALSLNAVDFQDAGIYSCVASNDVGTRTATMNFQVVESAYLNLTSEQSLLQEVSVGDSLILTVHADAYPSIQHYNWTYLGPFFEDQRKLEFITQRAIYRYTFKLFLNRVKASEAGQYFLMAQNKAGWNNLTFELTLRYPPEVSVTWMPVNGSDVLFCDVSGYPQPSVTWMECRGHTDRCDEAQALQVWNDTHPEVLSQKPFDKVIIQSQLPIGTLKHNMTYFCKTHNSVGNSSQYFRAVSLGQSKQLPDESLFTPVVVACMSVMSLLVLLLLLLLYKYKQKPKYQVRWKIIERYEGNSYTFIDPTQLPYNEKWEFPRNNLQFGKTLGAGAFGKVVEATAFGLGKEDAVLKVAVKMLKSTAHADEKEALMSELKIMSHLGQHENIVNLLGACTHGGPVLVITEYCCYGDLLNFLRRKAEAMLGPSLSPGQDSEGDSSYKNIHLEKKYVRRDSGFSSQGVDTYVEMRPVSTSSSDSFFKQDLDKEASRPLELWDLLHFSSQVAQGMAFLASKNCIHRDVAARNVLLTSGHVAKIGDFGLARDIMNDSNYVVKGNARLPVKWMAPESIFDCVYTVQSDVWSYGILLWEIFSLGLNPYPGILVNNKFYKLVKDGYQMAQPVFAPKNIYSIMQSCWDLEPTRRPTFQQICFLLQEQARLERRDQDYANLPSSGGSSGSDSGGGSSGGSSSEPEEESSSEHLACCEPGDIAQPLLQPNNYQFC

[10] = tested on: THP-1; experiment: Induction of conversion of M2-macrophages to the M1 phenotype in CM of HCT116 cells treated […]-differentiated human THP-1 cells assessed as down regulation of Retnla mRNA expression at 30 to 100 nM incubated for 24 hrs by qPCR analysis; assay type: functional, cell-based; details: dose 30-100 nM
[11] = tested on: Mus musculus; experiment: Toxicity in C57BL/6 mouse allografted with mouse MC38 cells assessed as heart damage at 5 to 20 mg/kg, po administered every day for 2 weeks by histopathological analysis; assay type: organism-based, MC-38; details: in vivo, 336 h, dose 5-20 mg/kg

inhibition [9]: Dose-dependent effect
SMILES: Cc1[nH]c(/C=C2\C(=O)Nc3cc(NC(=O)Nc4cc(C(C)(C)C)on4)ccc32)c(C)c1NC(=O)CN1CCN(C)CC1
Activity [1]: Non-Toxic
Activity [2]: Active
Activity [3]: inactive
Activity [4]: Dose-dependent effect
Activity [5]: Active
Activity [6]: Active
Activity [7]: inactive
Activity [8]: Active
Activity [10]: Active
Activity [11]: Non-Toxic
